The values below come from patent US20240190904A1, “Heteroaryl compounds as inhibitors of RIP2 kinase, composition and application thereof” (Accro Bioscience (HK) Limited, priority 2021, published 2024).

Structures are written as SMILES.

Common to all, as to type: in vitro ADME
The nature of data set [1]: Metabolic stability test, RLM. The note with it: rat, liver microsomes; for CLint scaled at 1 μM: pH 7.4, read-out: Cl (mL/min/kg) RLM; for half-life at 1 μM: pH 7.4, read-out: T1/2 (min) RLM. The procedure: (§1) • 1. Buffers: • Buffer A: 1.0 L of 0.1 M monobasic Potassium Phosphate buffer containing 1.0 mM EDTA • Buffer B: 1.0 L of 0.1 M Dibasic Potassium Phosphate buffer containing 1.0 mM EDTA • Buffer C: 0.1 M Potassium Phosphate buffer, 1.0 mM EDTA, pH 7.4 by titrating 700 mL of buffer B with buffer A while monitoring with the pH meter. • 2. Reference compounds (Ketanserin) and test compounds spiking solution: • 500 μM spiking solution: add 10 μL of 10 mM DMSO stock solution into 190 μL ACN. • 1.5 μM spiking solution in microsomes (0.75 mg/mL): add 1.5 μL of 500 μM spiking solution and 18.75 μL of 20 mg/mL liver microsomes into 479.75 μL of Buffer C on ice. • 3. Prepare NADPH stock solution (6 mM) by dissolving NADPH into buffer C. • 4. Dispense 30 μL of 1.5 μM spiking solution containing 0.75 mg/mL microsomes solution to the assay plates designated for different time points (0-, 5-, 15-, 30-, 45-min) on ice. • 5. For 0-min time point, add 135 μL of ACN containing IS to the wells of 0-min plate and then add 15 μL of NADPH stock solution (6 mM). • 6. Pre-incubate all other plates at 37° C. for 5 minutes. • 7. Add 15 μL of NADPH stock solution (6 mM) to the plates to start the reaction and timing. • 8. At 5-min, 15-min, 30-min, and 45-min, add 135 μL of ACN containing IS to the wells of corresponding plates, respectively, to stop the reaction. • 9. After quenching, shake the plates at the vibrator (IKA, MTS 2/4) for 10 min (600 rpm/min) and then centrifuge at 5594 g for 15 min (ThermoMultifuge×3R). • 10. Transfer 50 μL of the supernatant from each well into a 96-well sample plate containing 50 μL of ultra pure water (Millipore, ZMQS50F01) for LC/MS analysis.
(In general: Microsomes from liver hold many membrane-bound enzymes, among them those of drug oxidation.)

A short description of data set [2]: Caco-2 permeability test. To be noted: human, Caco-2, pH 7.4. Here is the method:
(§2) • 1. Prewarm HBSS Buffer in 37° C. water bath • 2. Take compounds from −20° C., sonicate for a few minutes (no less than 1 minute) • 3. Solution preparation
(§3) For A-to-B direction: • HBSS buffer with 0.3% DMSO and 5 μM LY: add 150 μL DMSO and 50 μL LY (5 mM) into 50 ml HBSS buffer (pH7.4). • HBSS buffer with 0.1% DMSO and 5 μM LY: add 50 μL DMSO and 50 μL LY (5 mM) into 50 mL HBSS buffer (pH7.4).
(§4) For B-to-A direction: • HBSS buffer with 0.3% DMSO: add 150 μL DMSO into 50 ml HBSS buffer (pH7.4) • HBSS buffer with 0.1% DMSO: add 50 μL DMSO into 50 ml HBSS buffer (pH7.4).
(§5) Receiver Solution Buffer:
(§6) Prepare HBSS buffer with 0.4% DMSO: add 200 μL DMSO into 50 ml HBSS buffer (pH7.4).
(§7) For B-to-A direction: • Prepare HBSS buffer with 0.4% DMSO and 5 uM LY: add 200 μL DMSO and 50 μL LY (5 mM) into 50 ml HBSS buffer (pH7.4).
(§8) Take cell culture plate out of incubator, wash the cell monolayers with HBSS buffer, and then measure TEER values at Rm temperature. • 5. Centrifuge the compound solution (from step 3) at 4000 rpm for 5 min before loading to donor chambers. • 6. Add solution based on the volumes listed in the following table (make sure to take extra 100 uL of donor sample for T0 as Backup).
(§9) • 7. To determine LY concentration in the apical chamber, take 100 μL sample from apical chambers into an opaque plate for LYT0. • 8. Prewarm apical and basolateral plates at 37° C. for about 5 min, then begin transport by placing the apical plate onto basolateral plate. • 9. Keep the plates in incubator at 37° C. for 90 min • 10. Prepare 20× solution
(§10) • 11. Separate the apical plate from the basolateral plate after 90-min incubation. • 12. Take 100 μL samples from basolateral plate to an opaque plate as LYT90. • 13. Measure LY concentrations for LYT0 and LYT90 by Fluorometer (at excitation of 485 nm/emission of 535 nm). • 14. Sample preparation for LC-MS/MS: Donor or receiver samples are diluted by 0.4% DMSO HBSS, then mix with ACN with IS (Osalmid or Imipramine)
(In general: Caco-2 monolayers are a common model of the intestinal barrier.)

The subject of data set [3] is Caco-2. The experiment in a line: Caco-2 permeability test. The note with it: Caco-2. The procedure: as §2, §3, §4, §5, §6, §7, §8, §9, §10
The nature of data set [4]: Metabolic stability test, DLM. The note with it: dog, liver microsomes; for CLint scaled at 1 μM: pH 7.4, read-out: Cl (mL/min/kg) DLM; for half-life at 1 μM: pH 7.4, read-out: T1/2 (min) DLM. The procedure:
as §1

The nature of data set [5]: Metabolic stability test, HLM. To be noted: human, liver microsomes; for CLint scaled at 1 μM: pH 7.4, read-out: Cl (mL/min/kg) HLM; for half-life at 1 μM: pH 7.4, read-out: T1/2 (min) HLM. The procedure: as §1
Where [6] appears, read: efflux ratio, read-out: Caco-2 Permeability B-A/A-B.

Usually Papp A→B stands for the apparent permeability from the apical to the basolateral side of a cell layer. In general, Papp B→A refers to the apparent permeability from the basolateral to the apical side of a cell layer.

On to `COc1cc2nccc(Nc3ccc4scnc4c3)c2cc1P(C)(C)=O` [A6], for which, in data set [1], the CLint scaled at 1 μM amounted to 25.9 mL/min/kg and the half-life at 1 μM turned out to be 95.7 min. Besides, the Papp A→B at 90 min in data set [2] (A-B) came out at 152 nm/s. The molecule also returned a Papp B→A at 90 min in data set [2] (B-A) of 330 nm/s. The efflux ratio at 90 min in data set [2] (setting [6]) amounted to 2.18. Also, in data set [3], the “efflux (in words)” value is reported as “no obvious efflux” and the “permeability (in words)” value was “high permeability”. Moreover, in data set [4], the CLint scaled at 1 μM amounted to 5.21 mL/min/kg and the half-life at 1 μM was determined as 664 min. In addition, in data set [5], the CLint scaled at 1 μM is 2.97 mL/min/kg and the half-life at 1 μM came to 586 min.
As to `CP(C)(=O)c1cc2c(Nc3ccc4scnc4c3)ccnc2cc1OCCO` [A7, (4-(benzo[d]thiazol-5-ylamino)-7-(2-hydroxyethoxy)quinolin-6-yl)dimethylphosphine oxide], the figures for the CLint scaled at 1 μM in data set [1], in data set [4] and in data set [5] were 17 mL/min/kg, 2.58 mL/min/kg and 4.13 mL/min/kg, respectively. In addition, the half-life at 1 μM in data set [1] was 146 min; in data set [4], 1340 min; in data set [5], 421 min. The molecule also came in with a Papp A→B at 90 min in data set [2] (A-B) of 5 nm/s. In data set [2] (B-A), this molecule yielded a Papp B→A at 90 min of 102 nm/s. Besides, the efflux ratio at 90 min in data set [2] (setting [6]) was found to be 20.5. Also, in data set [3], the “permeability (in words)” value is “low”.
For `COCCOc1cc2nccc(Nc3ccc4scnc4c3)c2cc1P(C)(C)=O` [A8], the CLint scaled at 1 μM worked out at 25.9 mL/min/kg in data set [1], 13.7 mL/min/kg in data set [4] and 15.9 mL/min/kg in data set [5]. The half-life at 1 μM worked out at 95.7 min in data set [1], 253 min in data set [4] and 109 min in data set [5]. Also, the apical-to-basolateral permeability (Papp A→B) at 90 min in data set [2] (A-B) was determined as 120 nm/s. This molecule yielded a Papp B→A at 90 min in data set [2] (B-A) of 356 nm/s. The efflux ratio at 90 min in data set [2] (setting [6]) amounted to 2.98. Further, in data set [3], the “efflux (in words)” value was “efflux substrate”. Besides, the “permeability (in words)” value in data set [3] was “favorable permeability”.
Take `CC1(COc2cc3nccc(Nc4ccc5scnc5c4)c3cc2P(C)(C)=O)COC1` [A9]: the results for the CLint scaled at 1 μM in data set [1], in data set [4] and in data set [5] were 63.9 mL/min/kg, 30.1 mL/min/kg and 33.5 mL/min/kg, respectively. The half-life at 1 μM in data set [1] was determined as 38.9 min; in data set [4], 115 min; in data set [5], 52 min. Besides, the Papp A→B at 90 min in data set [2] (A-B) was found to be 78.5 nm/s. Further, the Papp B→A at 90 min in data set [2] (B-A) came out at 465 nm/s. Further, in data set [2] (setting [6]), the efflux ratio at 90 min worked out at 5.92. Further, in data set [3], the “permeability (in words)” value was “moderate”.
`CP(C)(=O)c1cc2c(Nc3ccc4scnc4c3)ccnc2cc1O[C@H]1CCOC1` [A14]: the values for the CLint scaled at 1 μM in data set [1], in data set [4] and in data set [5] were 38.6 mL/min/kg, 5.58 mL/min/kg and 22.9 mL/min/kg, respectively. Besides, the figures for the half-life at 1 μM in data set [1], in data set [4] and in data set [5] were 64.4 min, 619 min and 75.8 min, respectively. This molecule also returned a Papp A→B at 90 min in data set [2] (A-B) of 70 nm/s. In addition, the Papp B→A at 90 min in data set [2] (B-A) stood at 359 nm/s. In data set [2] (setting [6]), the efflux ratio at 90 min turned out to be 5.13. For the same molecule, the “permeability (in words)” value in data set [3] is “moderate”.
For the molecule `CP(C)(=O)c1cc2c(Nc3ccc4scnc4c3)ccnc2cc1O[C@@H]1CCOC1` [A15], the CLint scaled at 1 μM stood at 49.5 mL/min/kg in data set [1], 4.16 mL/min/kg in data set [4] and 19.6 mL/min/kg in data set [5]. The half-life at 1 μM in data set [1] turned out to be 50.2 min; in data set [4], 831 min; in data set [5] it was 88.6 min. Moreover, the Papp A→B at 90 min in data set [2] (A-B) turned out to be 53.6 nm/s. This molecule came in with a Papp B→A at 90 min in data set [2] (B-A) of 350 nm/s. The efflux ratio at 90 min in data set [2] (setting [6]) was 6.53. Besides, in data set [3], the “permeability (in words)” value is “moderate”.
Take `CP(C)(=O)c1cc2c(Nc3ccc4scnc4c3)ccnc2cc1OC1COC1` [A16]: in data set [1], the CLint scaled at 1 μM came to 16.9 mL/min/kg and the half-life at 1 μM turned out to be 147 min. Further, in data set [2] (A-B), the Papp A→B at 90 min amounted to 21.6 nm/s. This molecule yielded a Papp B→A at 90 min in data set [2] (B-A) of 311 nm/s. For the same molecule, the efflux ratio at 90 min in data set [2] (setting [6]) was 14.4. The “permeability (in words)” value in data set [3] is on record as “low”. In addition, in data set [5], the CLint scaled at 1 μM amounted to 9.98 mL/min/kg and the half-life at 1 μM amounted to 174 min.
Regarding `CP(C)(=O)c1cc2c(Nc3ccc4scnc4c3)ccnc2cc1OC(F)(F)F` [A24], the Papp A→B at 90 min, 2 μM in data set [2] (A-B, test at 2 μM) was found to be 169 nm/s. In data set [2] (B-A, test at 2 μM), the Papp B→A at 90 min, 2 μM came out at 266 nm/s. In addition, the efflux ratio at 90 min, 2 μM in data set [2] (efflux ratio, test at 2 μM, read-out: Caco-2 Permeability B-A/A-B) was found to be 1.58. Besides, in data set [3], the “efflux (in words)” value is reported as “no obvious efflux” and the “permeability (in words)” value was “high permeability”.
